≈ marks a conversion by molar mass, not a printed value.
What was measured:
[1] = test system: spontaneously hypertensive rats; experiment: Antihypertensive efficacy test in spontaneously hypertensive rats (systolic blood pressure and heart rate by implanted blood pressure sensor); format: in vivo, rat; settings: SHR, intragastric, 1 mg/kg as azilsartan; for Change in heart rate / Changes in systolic blood pressure: mean ± standard error
Experimental: 12-week-old spontaneously hypertensive rats (hereinafter referred to as SHR, purchased from Beijing Vital River Laboratory Animal Technology Co., Ltd.) were anesthetized with 2.5% sodium pentobarbital for intraperitoneal injection. The blood pressure sensing catheter of a blood pressure implant was inserted into the abdominal aorta, the implant was fixed to the abdominal wall, and the postoperative daily care was performed after suturing. Animals with systolic blood pressure exceeding 160 mmHg were selected into a total of 3 groups with 8 animals in each group. The control group was given 0.5% CMC-Na (sodium carboxymethylcellulose); in the OR01019 group and the QR01019K group, the compounds were dissolved in 0.5% CMC-Na, and the doses were all administered at an effective dose of 1 mg/kg of azilsartan with an administration volume of 4 mL/kg by intragastric administration. The systolic blood pressure and heart rate of the animals before the administration were used as reference values, and the changes of systolic blood pressure and heart rate of SHR at each time point before and after administration were compared, in which the systolic blood pressure and heart rate of SHR were measured three times at each time point and then averaged.

[2] = Determination of equilibrium solubility; format: physicochemical; settings: for solubility thermodynamic at 24 h: 37 °C, thermodynamic from solid, 37±2° C., based on azilsartan
[3] = before administration (reference value)
[4] = aqueous buffer, pH 4.5 (acetate buffer)
[5] = aqueous buffer, pH 6.8 (phosphate buffer)
[6] = aqueous buffer, pH 7.8 (phosphate buffer)
[7] = simulated gastric fluid, pH 1.0 (hydrochloric acid solution)

| SMILES | Change in heart rate ([1]; 1 hour after administration) | Changes in systolic blood pressure ([1]; 1 hour after administration) | Change in heart rate ([1]; 3 hours after administration) | Changes in systolic blood pressure ([1]; 3 hours after administration) | Change in heart rate ([1]; 5 hours after administration) | Changes in systolic blood pressure ([1]; 5 hours after administration) | Change in heart rate ([1]; 7 hours after administration) | Changes in systolic blood pressure ([1]; 7 hours after administration) | Change in heart rate ([1]; 10 hours after administration) | Changes in systolic blood pressure ([1]; 10 hours after administration) | Change in heart rate ([1]; 24 hours after administration) | Changes in systolic blood pressure ([1]; 24 hours after administration) | Change in heart rate [1, 3] | Changes in systolic blood pressure [1, 3] | solubility thermodynamic at 24 h [2, 4] | solubility thermodynamic at 24 h [2, 5] | solubility thermodynamic at 24 h [2, 6] | solubility thermodynamic at 24 h [2, 7] | solubility thermodynamic at 24 h ([2]; Pure water) | other results |
| --- | --- | --- | --- | --- | --- | --- | --- | --- | --- | --- | --- | --- | --- | --- | --- | --- | --- | --- | --- | --- |
| CCOc1nc2cccc(C(=O)OC(C)OC(=O)OCc3nc(C)c(C)nc3C)c2n1Cc1ccc(-c2ccccc2-c2noc(=O)[nH]2)cc1 (centres unmarked) [QR01019, reference compound] | −3.4 ± 2.6 times/minute | −4.9 ± 4.8 mmHg | −2.33 ± 2.6 times/minute | −22.0 ± 3.6 mmHg | −6.5 ± 2.8 times/minute | −30.5 ± 3.5 mmHg | −6.2 ± 3.0 times/minute | −38.8 ± 2.3 mmHg | −12.3 ± 2.8 times/minute | −33.0 ± 1.7 mmHg | −6.7 ± 2.6 times/minute | −10.2 ± 2.1 mmHg | 0.0 ± 0.0 times/minute | 0.0 ± 0.0 mmHg | 0.06 µg/mL (≈ 0.0884 µM) | 1.6 µg/mL (≈ 2.36 µM) | 13.6 µg/mL (≈ 20 µM) | 2.01 µg/mL (≈ 2.96 µM) | 0.74 µg/mL (≈ 1.09 µM) | – |
| CCOc1nc2cccc(C(=O)OC(C)OC(=O)OCc3nc(C)c(C)nc3C)c2n1Cc1ccc(-c2ccccc2-c2noc(=O)[n-]2)cc1.[K+] (centres unmarked) [QR01019K] | −3.6 ± 2.4 times/minute | −7.0 ± 3.4 mmHg | −5.0 ± 2.5 times/minute | −34.3 ± 1.9 mmHg | −10.1 ± 3.0 times/minute | −46.5 ± 2.5 mmHg | −17.5 ± 3.0 times/minute | −49.4 ± 4.1 mmHg | −25.4 ± 2.4 times/minute | −45.3 ± 3.3 mmHg | −28.6 ± 8 times/minute | −25.9 ± 3.4 mmHg | 0.0 ± 0.0 times/minute | 0.0 ± 0.0 mmHg | 2.3 µg/mL | 25.9 µg/mL | 400 µg/mL | 18.7 µg/mL | 542 µg/mL | antihypertensive effect compared with QR01019 (in words) [1]: more potent and longer-lasting antihypertensive effect than QR01019; effect of reducing heart rate compared with QR01019 (in words) [1]: more potent and longer-lasting effect of reducing heart rate than QR01019; concentrations in acidic and neutral media compared with QR01019 (in words) ([2]; equilibrium solubility, Table 5): much higher than QR01019 |
